# According to patent publication US20050282781A1, “Compositions of stable bioactive metabolites of docosahexaenoic (DHA) and eicosapentaenoic (EPA) acids” (priority 2004, published 2005):
# Marks after values point to notes of the source that are not given here.
# Key:
# active learning in rats = experiment: Active learning (learning acquisition), number of trials to reach criterion; assay type: in vivo, rat; conditions: p.o. once daily 45 min before trial for 4 days, mean ± SEM
# From the text: In the learning acquisition paradigm, in the control group, the number of shocked and unshocked trials required to reach the criterion of 10 correct conditional responses, were 14.33 and 43.70, respectively.
# [1] = system: CS-induced gastric ulceration in albino rats; experiment: Chronic stress (foot-shock) induced gastric ulceration; assay type: in vivo
# Method: A comparative study of DBPs (1, 2, Scheme-II; 1:1 mixture), EPA and DHA was carried out to determine their relative adaptogenic potency against chronic stress in albino rats. The study is also relevant in view of the projected links of EPA and DHA to mental development in children which is severely retarded by chronic stress.
# Rats were randomly assigned to control or stress groups. Those assigned to the stress groups were subjected to 1 hour foot-shock, through a grid floor, every day for 14 days. The duration of each shock (2 mA) and the intervals between the shocks were randomly programmed between 3-5 seconds and 10-110 seconds, respectively, to make the stress unpredictable.
# EPA (Aldrich), DHA (Sigma) and DBPs were separately suspended/dissolved in 0.3% carboxymethylcellulose (CMC) in distilled water and administered orally (p.o.) for 14 days, starting on day 1, 60 min. prior to electro-shock. Control animals received only the vehicle in either unstressed or the stressed rats for the same period in a volume of 2 ml/Kg, p.o. Estimations were conducted on day 14, one hour after the last stress procedure and two hours after the last test compound or vehicle was administered.
# The three test compounds had, albeit in different extent, dose-related anti-ulcerogenic effect. The efficacy was in the order: DBPs>DHA>EPA (Table 2).
# [2] = system: CS-induced alteration of adrenal gland ascorbic acid and corticosterone concentrations and plasma corticosterone level; experiment: Chronic stress induced alteration of adrenal ascorbic acid, adrenal corticosterone and plasma corticosterone; assay type: in vivo, albino rats
# Method: The study is also relevant in view of the projected links of EPA and DHA to mental development in children which is severely retarded by chronic stress. Rats were randomly assigned to control or stress groups. Those assigned to the stress groups were subjected to 1 hour foot-shock, through a grid floor, every day for 14 days. […] Control animals received only the vehicle in either unstressed or the stressed rats for the same period in a volume of 2 ml/Kg, p.o. […] CS caused marked depletion of adrenal gland ascorbic acid and corticosterone concentrations with concomitant increase in plasma corticosterone levels. […] They had no per se effect on the indices of stress investigated (Table 3).
# open-field test in rats = experiment: Open-field test (anxiogenic test model); assay type: in vivo, rat; set-up: Immobility: unit not given here
# Method: This was determined according to a previously described method (Bhattacharya et al. 1998).
# MDMA (5 and 10 mg/Kg, i.p.) produced a dose-related decrease in the number of squares crossed and rears, with concomitant immobility and increased defecation; these effects are qualitatively similar to those induced by yohimbine (2 mg/Kg, i.p. in 0.9% saline as the vehicle). DBPs (1 and 2, 1:1 mixture 10 mg/Kg, p.o. day-1, for 7 days) were administered prior to MDMA or yohimbine administration, on the 7th day, 1 hour after the last DBPs administration (p.o.). Similar anti-anxiogenic effects were observed on pretreatment of MDMA, followed by DBPs.
# [3] = system: pylorus ligated albino rats; experiment: Anti-ulcerogenic effect in pylorus ligated rats (ulcer index, gastric juice); assay type: in vivo; conditions: 10 mg/ml
# From the text: Mixture of DBPs (1:1, 1 and 2, Scheme-II), on'the other hand, increased the contents of individual and the total carbohydrates and also the total carbohydrate/protein ratio in the gastric juice. The ratio of the total carbohydrate/protein was taken as the index of the mucin activity.
# Another essential criterion of determining the status of mucosal resistance/barrier is the state of mucus secretion. DBPs increase not only the mucosal cellular mucus, but also secrete more dissolved mucus in the gastric juice as evidenced by their effects on gastric juice carbohydrates and on the increased carbohydrate/protein ratio.
# [4] = Oral EPA or DHA to albino rats, blood levels of DBPs and benzoic acid by HPLC and GC-MS; assay type: in vivo
# Method: Oral administration of EPA to albino rats and tracking the blood level of DBPs by HPLC were conducted. […] Cells and plasma were separated by centrifugation and extracted separately with methanol before (BH) and after acidic (HCl) hydrolysis (AH). These extracts were subjected to HPLC, when DBPs (3-hydroxy- and 3,8-dihydroxydibenzo-α-pyrones) so formed were tracked and estimated. FIGS. 2A and 2B show the turnover of EPA into 3,8-dihydroxydibenzo-α-pyrone.
# Blood samples (2.5 ml) were collected from albino rats (200-220 grams, b.w.) by retro-orbital puncture, in heparinized tubes and centrifuged (3000 rpm) for 5 min. The supernatant (plasma, 0.4 ml) was collected and extracted with methanol (5 ml×3), at 60° C. by sonication for 10 min each. The combined methanolic extract was filtered and evaporated in vacuo. The residue so obtained was subjected to HPLC and GC-MS (as TMS derivatives) analyses. The presence of both 3-hydroxy-(str. 1, Scheme-II) and 3,8-dihydroxy-dibenzo-α-pyrone (str. 2, Scheme-II) was detected. Thus, the two DBPs are the normal metabolites of the albino rats. Their normal concentrations (control value) in the experimental rat blood were estimated at 0.170±0.052 μg/ml (str. 1, Scheme-II) and 0.100±0.023 μg/ml (str. 2, Scheme-II).
# In the EPA treatment experiment to the above animals, EPA (25 mg, in propylene glycol, 0.5 ml) per rat was fed through the oral route. […]
# [5] = 5 mg/Kg p.o. for 14 days + chronic stress
# [6] = 10 mg/Kg p.o. for 14 days + chronic stress
# [7] = 5 mg/Kg p.o., unstressed rats (per se effect)
# [8] = 10 mg/Kg p.o., unstressed rats (per se effect)
# [9] = 10 mg/Kg p.o. for 7 days, prior to MDMA or yohimbine administration
smiles,measurement,setting,value
"CC/C=C\C/C=C\C/C=C\C/C=C\C/C=C\CCCC(=O)O [EPA, cis-5,8,11,14,17-Eicosapentaenoic acid]","Number of trials to reach criterion, Shocked trials",active learning in rats; dose 2.5 mg/ml,13.82 ± 1.04
same,"Number of trials to reach criterion, Unshocked trials",active learning in rats; dose 2.5 mg/ml,40.11 ± 1.88
same,"Number of trials to reach criterion, Shocked trials",active learning in rats; dose 5.0 mg/ml,12.11 ± 2.01
same,"Number of trials to reach criterion, Unshocked trials",active learning in rats; dose 5.0 mg/ml,38.14 ± 1.92
same,No. of ulcers,[1]; [5],16.5 ± 3.4
same,Severity of ulcers,[1]; [5],28.3 ± 7.7
same,Ulcer incidence (%),[1]; [5],70%
same,No. of ulcers,[1]; [6],14.3 ± 4.4
same,Severity of ulcers,[1]; [6],26.4 ± 6.2
same,Ulcer incidence (%),[1]; [6],60%
same,Adrenal ascorbic acid,[2]; [5],138.5 ± 18.2 μg/100 mg
same,Adrenal corticosterone,[2]; [5],3.0 ± 1.4 μg/100 mg
same,Plasma corticosterone,[2]; [5],17.9 ± 0.9^b μg/dL
same,Adrenal ascorbic acid,[2]; [7],308.8 ± 28.7 μg/100 mg
same,Adrenal corticosterone,[2]; [7],5.7 ± 1.4 μg/100 mg
same,Plasma corticosterone,[2]; [7],15.0 ± 1.6 µg/dL
same,Adrenal ascorbic acid,[2]; [6],144.2 ± 14.7^b μg/100 mg
same,Adrenal corticosterone,[2]; [6],2.9 ± 0.7^b μg/100 mg
same,Plasma corticosterone,[2]; [6],18.3 ± 1.8^b μg/dL
same,Adrenal ascorbic acid,[2]; [8],310.5 ± 26.0 μg/100 mg
same,Adrenal corticosterone,[2]; [8],5.2 ± 0.8 μg/100 mg
same,Plasma corticosterone,[2]; [8],15.5 ± 1.1 µg/dL
same,Faecal pellets,open-field test in rats; [9],6.8 ± 3.0
same,Immobility,open-field test in rats; [9],70.1 ± 5.3
same,Rears,open-field test in rats; [9],12.2 ± 4.8
same,Squares crossed,open-field test in rats; [9],116.5 ± 9.9
same,reversal of the anxiety-inducing potential of MDMA,open-field test in rats; Table 5 model,only weak reversal effect
same,anti-ulcerogenic effect,[3],only weak anti-ulcerogenic effects
same,"blood level of 3,8-(OH)2-DBP (2) versus control",[4]; after 24 h of EPA treatment,higher than that of the control
same,"blood level of 3,8-(OH)2-DBP (2) versus control",[4]; after 72 h of EPA treatment,came down to control level
